From the supplement of paper PMC10307832

How the values were obtained:
Experiment in all cases: relative viability (nuclei count vs DMSO), 5 days (fraction); higher = more cells survive
Masitinib + Bortezomib = compound: Cc1ccc(NC(=O)c2ccc(CN3CCN(C)CC3)cc2)cc1Nc1nc(-c2cccnc2)cs1 [Masitinib] + CC(C)C[C@H](NC(=O)[C@H](Cc1ccccc1)NC(=O)c1cnccn1)B(O)O [Bortezomib] (partner 0.002 µM)
Procedure, shortened: (§1)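 Relative viability is defined as nuclei in treated wells over nuclei in vehicle wells. Duplicate plates were run and medians reported. Lung cancer cell lines in 1536-well plates were dosed by pin tool one day after seeding, with one drug or with a fixed anchor-drug dose plus five library-drug doses (not always all listed) in √10 steps, and nuclei were counted after 5 days.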

Masitinib + Foretinib = compound: Cc1ccc(NC(=O)c2ccc(CN3CCN(C)CC3)cc2)cc1Nc1nc(-c2cccnc2)cs1 [Masitinib] + COc1cc2c(Oc3ccc(NC(=O)C4(C(=O)Nc5ccc(F)cc5)CC4)cc3F)ccnc2cc1OCCCN1CCOCC1 [Foretinib] (partner 0.25 µM)
Procedure, shortened: as §1

Masitinib + Linsitinib = compound: Cc1ccc(NC(=O)c2ccc(CN3CCN(C)CC3)cc2)cc1Nc1nc(-c2cccnc2)cs1 [Masitinib] + C[C@]1(O)C[C@@H](c2nc(-c3ccc4ccc(-c5ccccc5)nc4c3)c3c(N)nccn32)C1 [Linsitinib] (partner 1 µM)
Procedure, shortened: as §1

[1] = compound: CC1=CC(=CC=C1)NC2=NC(=CS2)C3=CC=NC=C3 + Cc1cc(Nc2cc(N3CCN(C)CC3)nc(Sc3ccc(NC(=O)C4CC4)cc3)n2)n[nH]1 [Tozasertib] (partner 0.1 µM)
Procedure, shortened: as §1

Row | Cell Line | relative viability (Masitinib + Bortezomib; first compound 0.01 µM) | relative viability (Masitinib + Bortezomib; first compound 0.03162 µM) | relative viability (Masitinib + Bortezomib; first compound 0.1 µM) | relative viability (Masitinib + Bortezomib; first compound 0.3162 µM) | relative viability (Masitinib + Bortezomib; first compound 1 µM) | relative viability (Masitinib + Foretinib; first compound 0.01 µM) | relative viability (Masitinib + Foretinib; first compound 0.03162 µM) | relative viability (Masitinib + Foretinib; first compound 0.1 µM) | relative viability (Masitinib + Foretinib; first compound 0.3162 µM) | relative viability (Masitinib + Foretinib; first compound 1 µM) | relative viability (Masitinib + Linsitinib; first compound 0.01 µM) | relative viability (Masitinib + Linsitinib; first compound 0.03162 µM) | relative viability (Masitinib + Linsitinib; first compound 0.1 µM) | relative viability (Masitinib + Linsitinib; first compound 0.3162 µM) | relative viability (Masitinib + Linsitinib; first compound 1 µM) | relative viability ([1]; first compound 0.08 µM) | relative viability ([1]; first compound 0.253 µM) | relative viability ([1]; first compound 0.8 µM) | relative viability ([1]; first compound 2.53 µM) | relative viability ([1]; first compound 8 µM)
1 | NCI-H1299 | 0.985 | 1.05 | 0.995 | 1.01 | 1 | 1.04 | 1.06 | 1.09 | 1.09 | 1.07 | 0.778 | 1.02 | 1.06 | 1.09 | 0.879 | – | – | – | – | –
2 | NCI-H1395 | – | – | – | – | – | 0.969 | 1 | 1.06 | 0.754 | 0.915 | 1.05 | 1.09 | 1.09 | 0.959 | 1.02 | 0.604 | 0.782 | 0.689 | 0.669 | 0.693
3 | NCI-H1563 | 0.778 | 0.789 | 0.905 | 0.81 | 0.713 | 0.989 | 0.932 | 0.87 | 0.877 | 0.895 | 1.17 | 1.09 | 1.19 | 1.26 | 1.17 | – | – | – | – | –
4 | NCI-H1648 | – | – | – | – | – | – | – | – | – | – | – | – | – | – | – | 0.387 | 0.315 | 0.46 | 0.384 | 0.294
5 | NCI-H1650 | 0.198 | 0.172 | 0.186 | 0.215 | 0.212 | 0.984 | 0.914 | 1.09 | 0.902 | 1.17 | – | – | – | – | – | 0.531 | 0.543 | 0.461 | 0.363 | 0.269
6 | NCI-H1703 | 0.29 | 0.246 | 0.229 | 0.269 | 0.174 | 0.315 | 0.308 | 0.287 | 0.342 | 0.328 | 0.667 | 1.02 | 0.479 | 0.23 | 0.187 | – | – | – | – | –
7 | NCI-H1792 | 0.759 | 0.387 | 0.945 | 0.994 | 1.01 | – | – | – | – | – | 0.504 | 0.224 | 0.533 | 0.454 | 0.529 | – | – | – | – | –
8 | NCI-H1793 | – | – | – | – | – | 0.63 | 0.684 | 0.973 | 0.519 | 0.61 | 0.875 | 0.839 | 0.812 | 0.998 | 0.647 | 0.298 | 0.335 | 0.27 | 0.242 | 0.21
9 | NCI-H1944 | – | – | – | – | – | – | 0.832 | – | 0.793 | 0.85 | – | 1.14 | 0.794 | 1.12 | 1.17 | 0.291 | 0.24 | 0.226 | 0.203 | 0.178
10 | NCI-H2170 | – | – | – | – | – | 1.05 | 1.04 | 1.16 | 1.02 | 0.994 | – | – | – | – | – | 0.729 | 0.71 | 0.663 | 0.793 | 0.628
11 | NCI-H2342 | – | – | – | – | – | 1.09 | 0.875 | 1.08 | 1.13 | 1.01 | – | – | – | – | – | 0.533 | 0.423 | 0.573 | 0.476 | 0.505
12 | SK-MES-1 | – | – | – | – | – | 1 | 0.861 | 1.1 | 0.572 | 0.841 | 1.11 | 1.18 | 1.16 | 1.03 | 0.987 | 0.708 | 0.679 | 0.722 | 0.737 | 0.718
13 | SW 900 | – | – | – | – | – | 0.757 | 0.846 | 1.04 | 0.798 | 1.03 | – | – | – | – | – | 0.533 | 0.437 | 0.476 | 0.365 | 0.299
